Key:
Type in all cases: in vivo
[1] = tested on: boll weevil (Anthonomus grandis); test: Boll weevil test, 96-well microtiter plates with insect diet and eggs; settings: 120 h, egg and larval mortality after 5 days, read-out: mortality in comparison with untreated controls
Protocol: Boll Weevil (Anthonomus gandis)
For evaluating control of boll weevil (Anthonomus grandis) the test unit consisted of 96-well-microtiter plates containing an insect diet and 5-10 A. grandis eggs.
The compounds were formulated using a solution containing 75% v/v water and 25% v/v DMSO. Different concentrations of formulated compounds were sprayed onto the insect diet at 5 μl, using a custom built micro atomizer, at two replications.
After application, microtiter plates were incubated at about 25±1° C. and about 75±5% relative humidity for 5 days. Egg and larval mortality was then visually assessed.

[2] = tested on: Diamond Back Moth (Plutella xylostella); test: Diamond back moth test, dipped cabbage leaves; settings: 3rd instar larvae, 72 hours after treatment, read-out: mortality in comparison with untreated controls
Protocol: Diamond Back Moth (Plutella xylostella)
The active compound is dissolved at the desired concentration in a mixture of 1:1 (vol:vol) distilled water:acetone. Surfactant (Kinetic® HV) is added at a rate of 0.01% (vol/vol). The test solution is prepared at the day of use.
Leaves of cabbage were dipped in test solution and air-dried. Treated leaves were placed in petri dishes lined with moist filter paper and inoculated with ten 3rd instar larvae. Mortality was recorded 72 hours after treatment. Feeding damages were also recorded using a scale of 0-100%.

[3] = tested on: vetch aphid (Megoura viciae); test: Vetch aphid test, broad bean leaf disks in 24-well plates; settings: foliar, 120 h, 5 days, read-out: mortality in comparison with untreated controls
Protocol: Vetch Aphid (Megoura viciae)
For evaluating control of vetch aphid (Megoura viciae) through contact or systemic means the test unit consisted of 24-well-microtiter plates containing broad bean leaf disks.
The compounds were formulated using a solution containing 75% v/v water and 25% v/v DMSO. Different concentrations of formulated compounds were sprayed onto the leaf disks at 2.5 μl, using a custom built micro atomizer, at two replications.
After application, the leaf disks were air-dried and 5-8 adult aphids placed on the leaf disks inside the microtiter plate wells. The aphids were then allowed to suck on the treated leaf disks and incubated at about 23±1° C. and about 50±5% relative humidity for 5 days. Aphid mortality and fecundity was then visually assessed.

| SMILES | mortality at 800 ppm [1] [%] | mortality at 300 ppm [2] [%] | mortality at 800 ppm [3] [%] |
| --- | --- | --- | --- |
| Cn1c(C(F)(F)F)cc2nc(-c3ccccc3Cl)cn2c1=O [Example C-1, 2-(2-chlorophenyl)-6-methyl-7-(trifluoromethyl)imidazo[1,2-c]pyrimidin-5-one] | > 75 | – | – |
| CCS(=O)(=O)c1cccnc1-c1nc2cc(C(F)(F)F)cc(=O)n2n1C [Example C-4, 2-(3-ethylsulfonyl-2-pyridyl)-3-methyl-7-(trifluoromethyl)-[1,2,4]triazolo[1,5-a]pyridin-5-one] | – | > 75 | > 75 |
